Tests used:
Type in all cases: cell-based
[1] = tested on: Ba/F3-EGFR ins. SVD cells; test: Cell proliferation suppression test (CellTiter-Glo, GI50), Ba/F3-EGFR ins. SVD; conditions: Mus musculus, 72 h, 3 days, N=4
Outline: (§1)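 Ba/F3 lines in RPMI 1640/10% FBS without puromycin; IL-3 5 ng/mL added for Mock, EGF 100 ng/mL for EGFR WT. Cells treated 3 days at 37 °C, 5% CO2; ATP measured by CellTiter-Glo 2.0 on day 0 and day 3 (N=4). GI50 is the concentration inhibiting 50% of day 0–3 proliferation.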

[2] = tested on: Ba/F3-EGFR ins. ASV cells; test: Cell proliferation suppression test (CellTiter-Glo, GI50), Ba/F3-EGFR ins. ASV; conditions: Mus musculus, 72 h, 3 days, N=4
Outline: as §1

[3] = tested on: Ba/F3-EGFR WT cells; test: Cell proliferation suppression test (CellTiter-Glo, GI50), Ba/F3-EGFR WT; conditions: Mus musculus, 72 h, 100 ng/mL EGF, 3 days, N=4
Outline: as §1

[4] = tested on: Ba/F3-Mock cells; test: Cell proliferation suppression test (CellTiter-Glo, GI50), Ba/F3-Mock; conditions: Mus musculus, BaF3, 72 h, 5 ng/mL IL-3, 3 days, N=4
Outline: as §1

Row | GI50 [1] [nM] | GI50 [2] [nM] | GI50 [3] [nM] | Structure (SMILES) | GI50 [4] [nM]
1 | 11.6 | 10 | 412 | COc1cc2ncnc(Nc3ccc(Oc4nn(CC(=O)NC(C)(C)C)cc4F)cc3Cl)c2cc1NC(=O)/C=C/CN(C)C [Example 45, (2E)-N-{4-[4-({1-[2-(tert-Butylamino)-2-oxoethyl]-4-fluoro-1H-pyrazol-3-yl}oxy)-2-chloroanilino]-7-methoxyquinazolin-6-yl}-4-(dimethylamino)but-2-enamide] | 2840
2 | 13.7 | 13.9 | 123 | C=CC(=O)N1CCC(Oc2cc3c(Nc4ccc(Oc5cccc(-c6cn(C)nn6)c5)cc4F)ncnc3cc2OC)CC1 [Example 2] | 9530
3 | 19.6 | 39.4 | 191 | C=CC(=O)N1CCC(Oc2cc3c(Nc4cc(F)c(Oc5ccn(C(=O)NC(C)(C)C)n5)cc4F)ncnc3cc2OC)CC1 [Example 7, N-tert-Butyl-3-{2,5-difluoro-4-[(7-methoxy-6-{[1-(prop-2-enoyl)piperidin-4-yl]oxy}quinazolin-4-yl)amino]phenoxy}-1H-pyrazole-1-carboxamide] | 5900

Continued, molecule first:

Row | Structure (SMILES) | GI50 [1] [nM] | GI50 [2] [nM] | GI50 [3] [nM] | GI50 [4] [nM]
4 | [2H]C([2H])([2H])Oc1cc2ncnc(Nc3ccc(Oc4ccn(C(=O)NC(C([2H])([2H])[2H])(C([2H])([2H])[2H])C([2H])([2H])[2H])n4)cc3F)c2cc1OC1CCN(C(=O)C=C)CC1 [Example 21, 3-{3-Fluoro-4-[(7-[(^2H3)methyloxy]-6-{[1-(prop-2-enoyl)piperidin-4-yl]oxy}quinazolin-4-yl)amino]phenoxy}-N-[2-(^2H3)methyl(^2H6)propan-2-yl]-1H-pyrazole-1-carboxamide] | 7.3 | 12.1 | 129 | 7990
5 | C=CC(=O)N1CCC(Oc2cc3c(Nc4ccc(Oc5ccn(-c6ccnc(F)c6)n5)cc4F)ncnc3cc2OC)CC1 [Example 30, 1-(4-{[4-(2-Fluoro-4-{[1-(2-fluoropyridin-4-yl)-1H-pyrazol-3-yl]oxy}anilino)-7-methoxyquinazolin-6-yl]oxy}piperidin-1-yl)prop-2-en-1-one] | 14 | 13.5 | 121 | > 10000
6 | C=CC(=O)N1CCC(Oc2cc3c(Nc4ccc(Oc5ccn(C(=O)NC(C)(C)CF)n5)cc4F)ncnc3cc2OC)CC1 [Example 5, 3-{3-Fluoro-4-[(7-methoxy-6-{[1-(prop-2-enoyl)piperidin-4-yl]oxy}quinazolin-4-yl)amino]phenoxy}-N-(1-fluoro-2-methylpropan-2-yl)-1H-pyrazole-1-carboxamide] | 4.3 | 5.4 | 77.1 | > 10000
7 | COc1cc2ncnc(Nc3ccc(Oc4nc(CC(=O)NC(C)(C)C)cs4)cc3F)c2cc1NC(=O)/C=C/CN1CC[C@@H](OC)C1 [Example 61, (2E)-N-{4-[4-({4-[2-(tert-Butylamino)-2-oxoethyl]-1,3-thiazol-2-yl}oxy)-2-fluoroanilino]-7-methoxyquinazolin-6-yl}-4-[(3R)-3-methoxypyrrolidin-1-yl]but-2-enamide] | 88.1 | 25.6 | 731 | 3120
